According to ChEMBL document CHEMBL1201862, “PubChem BioAssay data set” (2004):
Active and inactive are the calls of the source.

Assays:
Escherichia coli = experiment: microbe, parasite or virus in culture
[1] = microbe, parasite or virus in culture; type: functional; conditions: Mycobacterium tuberculosis
[2] = target: Induced myeloid leukemia cell differentiation protein Mcl-1 (Homo sapiens, UniProt Q07820); type: functional
[3] = THP-1 cell cytotoxicity, dose response, cytotoxicity control for non-replicating M. tuberculosis project (AID 489025); type: functional
[4] = HepG2 cell cytotoxicity, dose response, cytotoxicity control for non-replicating M. tuberculosis project (AID 489018); type: functional; conditions: Mycobacterium tuberculosis
[5] = target: T1, Microphthalmia-associated transcription factor (Homo sapiens, UniProt O75030); experiment: TRPM1 promoter luciferase signal decrease, dose response, MITF inhibitor project, cell-based, SK-MEL-5, cherry-picked, set 3 (AID 493073); type: functional
T1 sequence (O75030 whole entry): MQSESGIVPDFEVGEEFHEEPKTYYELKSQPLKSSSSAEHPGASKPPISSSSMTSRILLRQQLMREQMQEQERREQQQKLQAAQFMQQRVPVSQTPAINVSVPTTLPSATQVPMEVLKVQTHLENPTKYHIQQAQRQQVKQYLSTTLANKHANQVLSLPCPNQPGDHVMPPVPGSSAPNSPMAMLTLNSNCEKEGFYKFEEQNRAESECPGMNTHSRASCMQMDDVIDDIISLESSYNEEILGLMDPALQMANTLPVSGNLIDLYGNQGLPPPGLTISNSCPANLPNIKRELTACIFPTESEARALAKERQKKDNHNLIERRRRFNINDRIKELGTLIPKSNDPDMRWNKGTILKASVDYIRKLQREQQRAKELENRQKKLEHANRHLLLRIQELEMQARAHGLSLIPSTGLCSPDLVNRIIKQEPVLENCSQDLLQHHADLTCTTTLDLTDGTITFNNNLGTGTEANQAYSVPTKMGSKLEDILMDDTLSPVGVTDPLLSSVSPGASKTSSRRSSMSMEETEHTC

cells = type: functional
[6] = target: T2, Replicative DNA helicase DnaB (Mycobacterium tuberculosis, UniProt P9WMR3); experiment: DnaB intein splicing inhibitors, dose response, biochemical, cell-free fluorescence (AID 449749); type: functional
T2 sequence (P9WMR3 whole entry): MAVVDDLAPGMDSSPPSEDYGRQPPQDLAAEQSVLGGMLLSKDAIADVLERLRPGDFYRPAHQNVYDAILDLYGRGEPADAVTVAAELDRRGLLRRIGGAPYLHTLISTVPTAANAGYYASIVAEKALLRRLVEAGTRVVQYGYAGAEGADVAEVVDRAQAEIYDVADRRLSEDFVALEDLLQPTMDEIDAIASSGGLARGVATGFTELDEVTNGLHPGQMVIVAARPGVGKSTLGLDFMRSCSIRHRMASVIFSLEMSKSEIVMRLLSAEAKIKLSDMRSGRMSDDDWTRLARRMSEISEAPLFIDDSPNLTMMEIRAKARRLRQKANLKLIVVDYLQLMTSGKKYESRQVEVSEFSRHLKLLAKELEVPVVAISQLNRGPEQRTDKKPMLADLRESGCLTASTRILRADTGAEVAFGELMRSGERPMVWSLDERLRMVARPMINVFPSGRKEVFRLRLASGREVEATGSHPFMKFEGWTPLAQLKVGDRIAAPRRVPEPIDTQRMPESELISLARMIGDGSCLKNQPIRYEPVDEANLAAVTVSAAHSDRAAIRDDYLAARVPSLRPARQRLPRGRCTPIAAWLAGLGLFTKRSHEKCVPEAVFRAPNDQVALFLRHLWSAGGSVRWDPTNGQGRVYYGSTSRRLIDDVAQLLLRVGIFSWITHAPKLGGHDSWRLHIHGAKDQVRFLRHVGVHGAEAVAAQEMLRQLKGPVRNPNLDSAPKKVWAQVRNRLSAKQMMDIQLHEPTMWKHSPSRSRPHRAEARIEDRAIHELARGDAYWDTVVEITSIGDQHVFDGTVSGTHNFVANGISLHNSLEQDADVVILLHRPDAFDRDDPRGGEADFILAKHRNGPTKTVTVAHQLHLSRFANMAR

[7] = target: Heat shock protein HSP 90-alpha (Homo sapiens, UniProt P07900); type: functional, organism-based
Protein RecA = target: T3, Protein RecA (Mycobacterium tuberculosis, UniProt P9WHJ3); experiment: Fluorescence Cell-Free Homogeneous Dose Retest to Identify Inhibitors of RecA-Intein Splicing Activity. [Related pubchem assays (depositor defined):AID2097, AID2223, AID489010, AID492950]; type: functional
T3 sequence (P9WHJ3 whole entry): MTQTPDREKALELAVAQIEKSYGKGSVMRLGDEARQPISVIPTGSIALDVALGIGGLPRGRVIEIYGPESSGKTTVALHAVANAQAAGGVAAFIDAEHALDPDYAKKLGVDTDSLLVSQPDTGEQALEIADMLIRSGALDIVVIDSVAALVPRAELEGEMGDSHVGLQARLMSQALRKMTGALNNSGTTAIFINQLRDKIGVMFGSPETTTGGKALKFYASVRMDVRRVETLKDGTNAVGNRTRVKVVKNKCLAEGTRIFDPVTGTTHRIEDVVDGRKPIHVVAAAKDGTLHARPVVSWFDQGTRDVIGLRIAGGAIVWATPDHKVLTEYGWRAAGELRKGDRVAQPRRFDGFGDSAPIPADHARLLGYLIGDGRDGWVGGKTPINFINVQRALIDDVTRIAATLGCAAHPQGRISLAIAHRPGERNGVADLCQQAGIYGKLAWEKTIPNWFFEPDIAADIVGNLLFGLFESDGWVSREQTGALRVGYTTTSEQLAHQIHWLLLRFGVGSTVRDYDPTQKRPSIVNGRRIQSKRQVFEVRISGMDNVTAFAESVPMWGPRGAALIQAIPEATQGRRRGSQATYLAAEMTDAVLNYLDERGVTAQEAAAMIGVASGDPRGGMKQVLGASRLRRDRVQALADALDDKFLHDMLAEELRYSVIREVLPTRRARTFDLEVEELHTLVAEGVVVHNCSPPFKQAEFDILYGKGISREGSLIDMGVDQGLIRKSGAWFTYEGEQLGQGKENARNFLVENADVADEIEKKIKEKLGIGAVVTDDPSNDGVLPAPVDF

HEK293 [8] = experiment: cells; conditions: Homo sapiens
HEK293 [9] = experiment: cells; conditions: Homo sapiens; remark: listed apart in the source
HeLa = experiment: HeLa cell cytotoxicity, dose response, cytotoxicity control for MITF activator project, CellTiter-Glo luminescence, cherry-pick samples (AID 540259); type: functional, cell-based; conditions: Homo sapiens
Beta-galactosidase = Beta-galactosidase (Escherichia coli, UniProt Q8VNN2); experiment: PubChem AID 485352; type: functional
Sequence of Beta-galactosidase (Q8VNN2 whole entry): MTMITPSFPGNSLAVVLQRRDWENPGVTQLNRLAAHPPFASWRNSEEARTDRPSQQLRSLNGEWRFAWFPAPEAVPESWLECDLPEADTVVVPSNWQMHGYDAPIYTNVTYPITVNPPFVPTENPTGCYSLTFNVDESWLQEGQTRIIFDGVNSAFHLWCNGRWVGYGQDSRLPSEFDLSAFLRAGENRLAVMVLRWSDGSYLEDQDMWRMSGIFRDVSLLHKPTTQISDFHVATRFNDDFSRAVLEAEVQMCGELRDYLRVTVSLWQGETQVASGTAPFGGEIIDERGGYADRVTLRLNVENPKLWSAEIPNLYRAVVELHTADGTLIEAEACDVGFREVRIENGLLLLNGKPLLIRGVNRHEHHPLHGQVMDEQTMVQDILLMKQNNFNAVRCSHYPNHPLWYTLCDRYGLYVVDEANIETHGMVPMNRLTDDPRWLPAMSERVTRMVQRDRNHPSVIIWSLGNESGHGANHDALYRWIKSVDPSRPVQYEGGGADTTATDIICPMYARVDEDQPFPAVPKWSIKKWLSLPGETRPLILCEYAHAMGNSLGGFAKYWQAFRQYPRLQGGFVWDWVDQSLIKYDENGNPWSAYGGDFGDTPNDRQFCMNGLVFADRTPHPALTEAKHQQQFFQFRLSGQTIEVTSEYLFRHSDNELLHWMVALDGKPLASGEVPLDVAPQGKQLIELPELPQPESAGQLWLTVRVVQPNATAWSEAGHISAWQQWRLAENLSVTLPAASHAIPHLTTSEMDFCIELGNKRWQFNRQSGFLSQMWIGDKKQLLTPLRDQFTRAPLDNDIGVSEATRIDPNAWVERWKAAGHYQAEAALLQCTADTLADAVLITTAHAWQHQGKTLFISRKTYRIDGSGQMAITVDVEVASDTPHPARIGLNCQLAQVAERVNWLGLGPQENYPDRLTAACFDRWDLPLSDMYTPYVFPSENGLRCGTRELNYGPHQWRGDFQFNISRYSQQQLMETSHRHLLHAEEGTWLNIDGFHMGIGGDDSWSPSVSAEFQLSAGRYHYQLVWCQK

[10] = target: T4, Type-1 angiotensin II receptor (Homo sapiens, UniProt P30556); experiment: AT1 receptor antagonists, dose response, selectivity assay for APJ receptor antagonist project, cell-based, uHTS hits (AID 463214); type: functional;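 also: antagonist potency against angiotensin II stimulated AT1 response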
T4 sequence (P30556 whole entry): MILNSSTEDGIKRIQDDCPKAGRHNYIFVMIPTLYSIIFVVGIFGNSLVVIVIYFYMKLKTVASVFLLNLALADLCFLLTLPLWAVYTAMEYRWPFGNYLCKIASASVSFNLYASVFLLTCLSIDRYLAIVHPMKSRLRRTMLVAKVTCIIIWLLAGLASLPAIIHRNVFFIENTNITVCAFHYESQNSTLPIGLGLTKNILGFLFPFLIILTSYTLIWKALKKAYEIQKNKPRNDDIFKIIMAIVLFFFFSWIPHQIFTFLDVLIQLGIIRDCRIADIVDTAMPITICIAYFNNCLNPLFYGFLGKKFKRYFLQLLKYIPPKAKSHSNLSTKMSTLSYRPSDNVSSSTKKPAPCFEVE

[11] = target: T5, Oxysterols receptor LXR-beta (Homo sapiens, UniProt P55055); type: functional, cell-based;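 also: agonist activity at LXR measured by a cell-based luminescence readout across a dose range, run as a counterscreen for daf-12 agonists; HEK293 cells with Gal4-LXR fusion and GAL4-driven luciferase reporter; potency for activation of Gal4-LXR reporter so compounds are agonists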
T5 sequence (P55055 whole entry): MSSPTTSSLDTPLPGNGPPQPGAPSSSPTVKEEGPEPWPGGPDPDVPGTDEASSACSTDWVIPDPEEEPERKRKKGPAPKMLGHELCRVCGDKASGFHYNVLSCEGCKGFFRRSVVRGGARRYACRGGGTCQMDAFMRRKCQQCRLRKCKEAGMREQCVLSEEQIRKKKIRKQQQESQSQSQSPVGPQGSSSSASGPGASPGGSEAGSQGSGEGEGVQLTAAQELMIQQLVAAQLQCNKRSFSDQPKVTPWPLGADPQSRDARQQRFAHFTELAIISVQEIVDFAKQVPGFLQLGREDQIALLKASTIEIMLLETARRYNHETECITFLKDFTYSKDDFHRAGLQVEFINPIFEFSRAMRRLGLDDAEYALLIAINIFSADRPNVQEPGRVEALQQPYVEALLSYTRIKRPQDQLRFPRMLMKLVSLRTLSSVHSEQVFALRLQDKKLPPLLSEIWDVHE

Sequence of Induced myeloid leukemia cell differentiation protein Mcl-1 (Q07820 whole entry): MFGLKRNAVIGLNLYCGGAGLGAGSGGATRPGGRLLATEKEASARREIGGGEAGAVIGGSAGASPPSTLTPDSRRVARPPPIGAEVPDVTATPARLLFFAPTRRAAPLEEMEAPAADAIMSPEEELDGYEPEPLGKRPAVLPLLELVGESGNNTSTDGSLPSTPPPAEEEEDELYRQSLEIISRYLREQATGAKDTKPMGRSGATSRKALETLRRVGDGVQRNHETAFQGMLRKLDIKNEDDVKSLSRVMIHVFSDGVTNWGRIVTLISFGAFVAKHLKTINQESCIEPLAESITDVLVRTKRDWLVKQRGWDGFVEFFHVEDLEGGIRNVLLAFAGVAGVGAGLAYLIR

Structure (SMILES): COc1ccc(OC2OC3COC(c4ccco4)OC3C(O)C2NC(C)=O)cc1 (configuration not stated)
- AC50 (Escherichia coli): 32.1 µM (active)

Structure (SMILES): CC(C(=O)NC1CCCC1)N1CCN(S(=O)(=O)c2ccc(C(C)(C)C)cc2)CC1 (configuration not stated)
- AC50 (Escherichia coli): 70.4 µM (active)

Structure (SMILES): Cc1ccc(CNC(=O)C2CCCN2C(=O)Nc2ccccc2)cc1 (configuration not stated)
- AC50 (Escherichia coli): 33.2 µM (active)

Structure (SMILES): O=C1Nc2ccc(Br)cc2/C1=C/C(=O)c1ccc2c(c1)OCO2
- CC50 [1]: 32.2 µM (active)
- IC50 [2]: 1.29 µM (active)
- CC50 [3]: 11.9 µM (active)
- CC50 [4]: 18.9 µM (active)
- AC50 [5]: 25.5 µM (active)
- IC50 (cells): 15.2 µM (active)
- AC50 [6]: 36.3 µM (active)
- AC50 [7]: 2.17 µM (active)
- EC50 (Protein RecA): 1.46 µM (active)
- EC50 (HEK293 [8]): > 59.6 µM (inactive)
- EC50 (HEK293 [9]): > 59.6 µM (inactive)

Structure (SMILES): CN(C1=NC(=O)/C(=C2\C(=O)Nc3ccccc32)S1)c1ccc(O)cc1
- AC50 (HeLa): 45.4 µM (active)

Structure (SMILES): COc1cccc(/C=C/c2ccc3cccc(O)c3n2)c1
- EC50 (Beta-galactosidase): > 40 µM (inactive)
- IC50 [10]: 15.1 µM (active)
- AC50 [7]: 24.4 µM (active)
- EC50 [11]: > 67.5 µM (inactive)
- EC50 (HEK293 [8]): > 59.7 µM (inactive)
- EC50 (HEK293 [9]): > 0.0091 µM (active)

Structure (SMILES): COc1ccc2[nH]c(-c3ccccc3)cc2c1
- AC50 (HeLa): 55.1 µM (active)
